System: platelets (surface glycoprotein IIb-IIIa)
Experiment: Inhibition of fibrinogen*FITC binding to ADP-activated platelets in whole blood spiked with ReoPro (microtitration well capture)
Assay type: cell-based
Conditions: whole blood (CTI 32 μg/ml) pretreated with ReoPro 3 μg/ml; ADP 0, 0.4, 0.8 μM; FIG. 3
Excerpt: The concentration of ReoPro used is that known to inhibit the aggregation of platelets as determined with the use of aggregometry.

Substance: ReoPro: antiplatelet drug that inhibits binding of fibrinogen to the activated conformer of surface glycoprotein IIb-IIIa
- binding of fibrinogen*FITC to platelets (ratio of fibrinogen*FITC signal to CD42*PerCP signal): inhibits

Source: patent US6391568B1, “Method for determining platelet reactivity in a whole blood sample” (Lionheart Technologies, Inc., priority 1998, dated 2002)
